In ChEMBL document CHEMBL3596145, “Structure and inhibition studies of a type II beta-carbonic anhydrase psCA3 from Pseudomonas aeruginosa” (Bioorg Med Chem, 2015):
Active and inactive are the calls of the source. No cut-off for these calls is given here.

molecular target: T1, Carbonic anhydrase (Pseudomonas aeruginosa (strain ATCC 15692 / PAO1 / 1C / PRS 101 / LMG12228), UniProt Q9HVB9); assay: biochemical; format: cell-based, BL21-DE3
T1 sequence (Q9HVB9 whole entry): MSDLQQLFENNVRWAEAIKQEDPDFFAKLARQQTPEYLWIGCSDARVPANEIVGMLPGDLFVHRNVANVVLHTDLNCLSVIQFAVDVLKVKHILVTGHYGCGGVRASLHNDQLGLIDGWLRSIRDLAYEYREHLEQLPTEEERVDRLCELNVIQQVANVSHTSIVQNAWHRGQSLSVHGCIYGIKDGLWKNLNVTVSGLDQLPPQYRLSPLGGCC
Description: Inhibition of Pseudomonas aeruginosa PAO1 type-2 beta-carbonic anhydrase psCA3 expressed in Escherichia coli Tuner BL21 (DE3) cells pre-incubated for 15 mins at pH 8.3 and 293K by CO2 hydration reaction based colorimetric stopped-flow method

SMILES | Ki [µM]
Nc1cccc(S(N)(=O)=O)c1 | 0.032
CCN(CC)C(=S)S [DITIOCARB SODIUM] | 330
OB(O)c1ccccc1 [PHENYLBORONIC ACID] | 8
[N-]=[N+]=[N-] [SODIUM AZIDE] | 770
O=C([O-])O.[Na+] [SODIUM BICARBONATE] | 3200
O=S([O-])O.[Na+] [SODIUM BISULFITE] | 7000
[Br-].[Na+] [SODIUM BROMIDE] | > 100000
S=C(S)S [SODIUM CARBONOTRITHIOATE] | 840
[Cl-].[Na+] [SODIUM CHLORIDE] | > 100000
N#CO [SODIUM CYANATE] | 650
[F-].[Na+] [SODIUM FLUORIDE] | > 100000
S [SODIUM HYDROSULFIDE] | 620
O=S(=O)(O)ONOS(=O)(=O)O [SODIUM IMINODISULFATE] | 4700
[I-].[Na+] [SODIUM IODIDE] | > 100000
O=[N+]([O-])[O-].[Na+] [SODIUM NITRATE] | 14200
O=NO [SODIUM NITRITE] | 940
[O-][Cl+3]([O-])([O-])O [SODIUM PERCHLORATE] | > 100000
O=S(=O)(O)OOS(=O)(=O)O [SODIUM PERSULFATE] | 720
O=[Se](=O)(O)O [SODIUM SELENATE] | 23500
N#C[SeH] [SODIUM SELENOCYANATE] | 680
O=S(=O)([O-])[O-].[Na+].[Na+] [SODIUM SULFATE ANHYDROUS] | > 100000
O=[Te](=O)(O)O [SODIUM TELLURATE] | 7900
O=BOB(O)OB(O)OB=O [SODIUM TETRABORATE] | 9100
F[B-](F)(F)F.[Na+] [SODIUM TETRAFLUOROBORATE] | > 100000
NS(=O)(=O)O [SULFAMATE] | 38
NS(N)(=O)=O [SULFAMIDE] | 8
N#C[S-].[Na+] [THIOCYANATE SODIUM] | 610

system: Pseudomonas aeruginosa; assay: Growth inhibition of Pseudomonas aeruginosa PAO1; format: functional, organism-based

SMILES | growth inhibition (GI)
NS(N)(=O)=O [SULFAMIDE] | inactive

system: Pseudomonas aeruginosa; assay: Induction of growth defect in Pseudomonas aeruginosa PAO1 up to 1 mM; format: functional, organism-based

SMILES | Activity
NS(N)(=O)=O [SULFAMIDE] | Active

system: Pseudomonas aeruginosa; assay: Induction of growth delay of Pseudomonas aeruginosa PAO1 assessed as growth delay time; format: functional

SMILES | Time [h]
NS(N)(=O)=O [SULFAMIDE] | 1
